The record followed here is US6743816B2, “Imidazole derivatives with anti-inflammatory activity” (J. Uriach & Cia S.A., priority 2000, dated 2004).

Structures are written as SMILES. Structures can show the parent of a compound that is named as a salt.

Test [1] addresses T1, human COX-1 (U-937 from human histiocitic lymphoma) (Homo sapiens, UniProt P23219).
T1 construct: cell lines expressing human COX-1 (U-937 from human histiocitic lymphoma); endogenous in cells; host or cells: U-937 (human histiocytic lymphoma)
As to the kind of experiment: Inhibition of COX-1 activity in human cell line (PGE2 production after arachidonic acid). The format is cell-based. Particulars: 0.1 μM test compound; U-937 cells; PGE2 after 10 μM arachidonic acid. As to the method:
(§1) Inhibition of Cyclooxygenase-1 (COX-1) and Cyclooxygenase-2 (COX-2) Activity in Human Cell Lines
The inhibition of COX-1 and COX-2 is determined by assessing the PGE2 production after stimulation with arachidonic acid in cell lines expressing human COX-1 (U-937 from human histiocitic lymphoma) and human COX-2 (143.98.2 from human osteosarcoma), respectively.
(§2) The osteosarcoma-derived cells were cultured in 1 mL of DMEM culture medium supplemented with 10% fetal calf serum, in 24-well multidishes until confluence. U-937 cells were cultured in RPMI medium supplemented with 10% fetal calf serum in flasks.
(§3) To evaluate COX-2 activity, the medium was removed and replaced with Hepes-buffered saline solution (HBSS) without Ca^2+/Mg^2+ (2×10^5 cells/well). To evaluate COX-1 activity, the medium was removed and U-937 cells were resuspended to a final density of 3×10^6 cells/mL in HBSS without Ca^2+/Mg^2+ (1 mL/well, in 24-well multidishes). 1 μL of a solution of the test compound dissolved in DMSO or vehicle was added, and the samples were incubated for 15 min at 37° C. (5% CO2 and 95% humidity). Arachidonic acid was added (final concentration: 10 μM) and the samples were incubated for 10 min more. Next the reactions were quenched by adding indomethacin (8 mM, 30 μL). The amount of PGE2 in the supernatant was determined by specific enzymatic immunoassay (Kit Prostaglandin E2, Biotrak EIA system RPN222, Amersham Pharmacia Biotech). All the assays were performed in triplicate.

The target of test [2] is T2, human COX-2 (143.98.2 from human osteosarcoma) (Homo sapiens, UniProt P35354).
T2 construct: human COX-2 (143.98.2 from human osteosarcoma); endogenous in cells; host or cells: 143.98.2 (human osteosarcoma)
T2 sequence (P35354 18-604): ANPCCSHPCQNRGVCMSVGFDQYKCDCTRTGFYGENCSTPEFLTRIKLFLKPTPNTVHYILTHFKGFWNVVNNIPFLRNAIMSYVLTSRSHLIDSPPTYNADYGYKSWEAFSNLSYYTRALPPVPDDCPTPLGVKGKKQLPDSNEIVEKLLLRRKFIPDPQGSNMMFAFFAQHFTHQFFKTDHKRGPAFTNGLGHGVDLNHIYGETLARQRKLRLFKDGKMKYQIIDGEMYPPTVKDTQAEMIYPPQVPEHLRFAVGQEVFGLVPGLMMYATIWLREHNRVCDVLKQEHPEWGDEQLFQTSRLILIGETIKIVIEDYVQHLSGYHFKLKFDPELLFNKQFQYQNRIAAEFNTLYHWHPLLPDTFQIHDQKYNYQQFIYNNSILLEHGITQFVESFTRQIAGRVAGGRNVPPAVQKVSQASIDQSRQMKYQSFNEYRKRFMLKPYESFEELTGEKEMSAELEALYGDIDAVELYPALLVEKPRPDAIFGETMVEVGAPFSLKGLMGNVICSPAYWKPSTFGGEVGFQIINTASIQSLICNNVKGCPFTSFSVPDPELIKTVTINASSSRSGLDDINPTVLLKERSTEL
The test is described as follows: Inhibition of COX-2 activity in human cell line (PGE2 production after arachidonic acid). Format: cell-based. Conditions: 0.1 μM test compound; 143.98.2 osteosarcoma cells; PGE2 after 10 μM arachidonic acid. As to the method: as §1, §2
as §3, with “(5% CO2 and 95% humidity).” left out

As a reminder, the inhibition is how much of the control response was suppressed. A low value points to little suppression.

T1 sequence (P23219 24-599): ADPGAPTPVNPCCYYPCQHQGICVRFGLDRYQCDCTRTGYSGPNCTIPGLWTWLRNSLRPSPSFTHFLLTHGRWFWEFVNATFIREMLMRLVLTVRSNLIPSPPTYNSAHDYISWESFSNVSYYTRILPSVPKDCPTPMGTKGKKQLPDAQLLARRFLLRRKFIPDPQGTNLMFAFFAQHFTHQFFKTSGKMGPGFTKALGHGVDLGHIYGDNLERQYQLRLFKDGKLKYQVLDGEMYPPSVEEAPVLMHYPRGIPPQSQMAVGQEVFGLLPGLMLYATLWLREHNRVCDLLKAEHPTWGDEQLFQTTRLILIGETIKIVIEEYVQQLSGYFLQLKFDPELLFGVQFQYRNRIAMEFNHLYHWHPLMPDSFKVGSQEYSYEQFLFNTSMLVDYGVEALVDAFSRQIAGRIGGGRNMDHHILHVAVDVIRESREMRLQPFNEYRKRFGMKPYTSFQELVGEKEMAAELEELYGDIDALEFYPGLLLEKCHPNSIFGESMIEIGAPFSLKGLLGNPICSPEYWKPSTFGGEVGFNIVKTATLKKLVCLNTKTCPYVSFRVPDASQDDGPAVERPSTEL

With `CC(C)Oc1ccc(-c2c(Cl)ncn2-c2ccc(S(C)(=O)=O)cc2)cc1` [Example 1, 4-Chloro-5-(4-isopropoxyphenyl)-1-(4-methylsulfonylphenyl)imidazole], the figures for the inhibition at 0.1 µM in test [1] and in test [2] were 0% and 52%, respectively.

Take `COc1cc(-c2c(Cl)ncn2-c2ccc(S(C)(=O)=O)cc2)ccc1F` [Example 2, 4-Chloro-5-(4-fluoro-3-methoxyphenyl)-1-(4-methylsulfonylphenyl)imidazole]: the values for the inhibition at 0.1 µM in test [1] and in test [2] were 0% and 82%, respectively.

With `CCOc1ccc(-c2c(Cl)ncn2-c2ccc(S(C)(=O)=O)cc2)cc1F` [Example 3, 4-Chloro-5-(4-ethoxy-3-fluorophenyl)-1-(4-methylsulfonylphenyl)imidazole], the inhibition at 0.1 µM in test [1] amounted to 15%; in test [2], 76%.

As to `CS(=O)(=O)c1ccc(-n2cnc(Cl)c2-c2cc(F)cc(F)c2)cc1` [Example 4, 4-Chloro-5-(3,5-difluorophenyl)-1-(4-methylsulfonylphenyl)imidazole], the inhibition at 0.1 µM in test [1] was found to be 2%; in test [2] it was 57%.

Regarding `COc1ccc(-c2c(Cl)ncn2-c2ccc(S(C)(=O)=O)cc2)cc1Cl` [Example 5, 4-Chloro-5-(3-chloro-4-methoxyphenyl)-1-(4-methylsulfonylphenyl)imidazole], the inhibition at 0.1 µM turned out to be 17% in test [1] and 92% in test [2].

For `CCOc1ccc(-c2c(Cl)ncn2-c2ccc(S(C)(=O)=O)cc2)cc1Cl` [Example 6, 4-Chloro-5-(3-chloro-4-ethoxyphenyl)-1-(4-methylsulfonylphenyl)imidazole], the inhibition at 0.1 µM in test [1] worked out at 0%; in test [2], 87%.

With `CS(=O)(=O)c1ccc(-n2cnc(Cl)c2-c2ccc3c(c2)OCO3)cc1` [Example 7, 4-Chloro-5-[3,4-(methylenedioxy)phenyl]-1-(4-methylsulfonylphenyl)imidazole], the “% Inhibition (0.1 μM) COX-1” value in test [1] came to 1%.

On to `COc1c(Cl)cc(-c2c(Cl)ncn2-c2ccc(S(C)(=O)=O)cc2)cc1Cl` [Example 8, 4-Chloro-5-(3,5-dichloro-4-methoxyphenyl)-1-(4-methylsulfonylphenyl)imidazole], for which the results for the inhibition at 0.1 µM in test [1] and in test [2] were 0% and 92%, respectively.

As for `CC(C)c1ccc(-c2c(Cl)ncn2-c2ccc(S(C)(=O)=O)cc2)cc1` [Example 9, 4-Chloro-5-(4-isopropylphenyl)-1-(4-methylsulfonylphenyl)imidazole], the figures for the inhibition at 0.1 µM in test [1] and in test [2] were 0% and 82%, respectively.

Regarding `CCN(CC)c1ccc(-c2c(Cl)ncn2-c2ccc(S(C)(=O)=O)cc2)cc1` [Example 10, 4-Chloro-5-(4-N,N-diethylaminophenyl)-1-(4-methylsulfonylphenyl)imidazole], in test [1], the “% Inhibition (0.1 μM) COX-1” value worked out at 0%. In addition, in test [2], the “% Inhibition (0.1 μM) COX-2” value is listed as 64%.

`COc1cc(-c2c(Cl)ncn2-c2ccc(S(N)(=O)=O)cc2)ccc1F` [Example 11, 4-[4-Chloro-5-(4-fluoro-3-methoxyphenyl)imidazol-1-yl]benzenesulfonamide]: the inhibition at 0.1 µM came out at 0% in test [1] and 88% in test [2].

As for `CCOc1ccc(-c2c(Cl)ncn2-c2ccc(S(N)(=O)=O)cc2)cc1F` [Example 12, 4-[4-Chloro-5-(4-ethoxy-3-fluorophenyl)imidazol-1-yl]benzenesulfonamide], the results for the inhibition at 0.1 µM in test [1] and in test [2] were 0% and 65%, respectively.

As for `CCOc1ccc(-c2c(Cl)ncn2-c2ccc(S(N)(=O)=O)cc2)cc1Cl` [Example 13, 4-[4-Chloro-5-(3-chloro-4-ethoxyphenyl)imidazol-1-yl]benzenesulfonamide], the values for the inhibition at 0.1 µM in test [1] and in test [2] were 0% and 97%, respectively.

On to `COc1ccc(-c2c(Cl)ncn2-c2ccc(S(N)(=O)=O)cc2)cc1Cl` [Example 14, 4-[4-Chloro-5-(3-chloro-4-methoxyphenyl)imidazol-1-yl]benzenesulfonamide], for which the inhibition at 0.1 µM in test [1] worked out at 8%; in test [2], 87%.

As for `COc1c(Cl)cc(-c2c(Cl)ncn2-c2ccc(S(N)(=O)=O)cc2)cc1Cl` [Example 15, 4-[4-Chloro-5-(3,5-dichloro-4-methoxyphenyl)imidazol-1-yl]benzenesulfonamide Hydrochloride], the values for the inhibition at 0.1 µM in test [1] and in test [2] were 0% and 90%, respectively.

Take `CCCc1ccc(-c2c(Cl)ncn2-c2ccc(S(C)(=O)=O)cc2)cc1` [Example 16, 4-Chloro-1-(4-methylsulfonylphenyl)-5-(4-propylphenyl)imidazole]: the values for the inhibition at 0.1 µM in test [1] and in test [2] were 0% and 48%, respectively.
